Like-named read-outs stand apart in the source and are kept apart here.

Experiment [1] addresses α4β7 integrin (Homo sapiens (Human), UniProt P13612+P26010). Briefly: Integrin Adhesion Assay: Protocol 1 (MAdCAM-coated plate, RPMI-8866 cells, CellTiter GLO readout). The experiment is classed as cell-based. The essentials: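 RPMI-8866 cells (2×10^6 per mL) added with compounds (1% DMSO) to MAdCAM-coated wells blocked in HEPES/NaCl buffer with 1 mM MnCl2, 0.1 mM CaCl2, 1% BSA; 1 h at 37° C, 5% CO2. After four washes, bound cells read by CellTiter GLO luminescence; % inhibition vs DMSO and control wells, 4-parameter fit.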
A general note: Cellular ATP, detected with luciferase, serves as a proxy for viable cell number.

Experiment [2] concerns the target α4β1 integrin (Homo sapiens (Human), UniProt P05556+P13612). Briefly: Integrin Adhesion Assay: Protocol 5 (VCAM-coated plate, RPMI-8866 cells with stable LOF mutation of the ITGB7 gene). The experiment is classed as cell-based. The essentials: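 RPMI-8866 B cells with CRISPR/Cas9 ITGB7 knockout (clonal, verified by flow cytometry) adhered to VCAM-coated wells for 1 h at 37° C in HEPES/NaCl buffer with 1 mM MnCl2, 0.1 mM CaCl2, 1% BSA, 1% DMSO. Bound cells quantified by CellTiter-Glo luminescence after washing; % inhibition versus DMSO and control, 4-parameter fit.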

Where [3] appears, read: RPMI-8866 cells with stable LOF mutation of the ITGB7 gene, read-out: Mean IC50 α4β1 KO^b.
The mark [4] stands for this setting: Protocol 5, RPMI-8866 cells with LOF mutation of ITGB7, VCAM, read-out: Mean IC50 α4β1 KO.

Chain of α4β7 integrin (P13612 34-1032): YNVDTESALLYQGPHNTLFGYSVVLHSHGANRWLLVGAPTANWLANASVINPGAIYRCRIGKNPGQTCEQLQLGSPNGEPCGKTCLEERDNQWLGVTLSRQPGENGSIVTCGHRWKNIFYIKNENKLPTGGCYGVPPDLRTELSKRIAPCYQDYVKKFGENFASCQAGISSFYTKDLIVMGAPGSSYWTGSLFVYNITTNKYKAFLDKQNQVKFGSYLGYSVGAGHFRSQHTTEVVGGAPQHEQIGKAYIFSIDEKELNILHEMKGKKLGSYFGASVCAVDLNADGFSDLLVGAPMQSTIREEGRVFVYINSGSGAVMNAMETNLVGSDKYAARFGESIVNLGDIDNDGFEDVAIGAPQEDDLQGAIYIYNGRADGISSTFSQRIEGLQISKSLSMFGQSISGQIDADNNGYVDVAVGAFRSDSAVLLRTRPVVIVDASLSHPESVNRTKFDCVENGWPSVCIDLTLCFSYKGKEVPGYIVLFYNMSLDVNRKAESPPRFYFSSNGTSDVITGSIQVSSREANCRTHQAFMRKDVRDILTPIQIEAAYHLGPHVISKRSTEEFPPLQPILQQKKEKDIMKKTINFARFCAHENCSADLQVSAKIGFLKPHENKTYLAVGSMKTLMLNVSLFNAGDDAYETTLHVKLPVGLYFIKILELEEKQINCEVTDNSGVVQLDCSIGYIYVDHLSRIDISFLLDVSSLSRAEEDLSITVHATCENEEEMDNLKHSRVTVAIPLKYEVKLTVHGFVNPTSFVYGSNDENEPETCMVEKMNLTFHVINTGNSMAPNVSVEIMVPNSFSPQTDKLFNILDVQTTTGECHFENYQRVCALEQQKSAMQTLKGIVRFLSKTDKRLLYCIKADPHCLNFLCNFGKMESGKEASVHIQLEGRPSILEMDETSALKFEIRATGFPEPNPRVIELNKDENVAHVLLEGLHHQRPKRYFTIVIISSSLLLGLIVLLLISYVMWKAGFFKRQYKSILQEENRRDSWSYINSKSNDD
Chain of α4β7 integrin (P26010 20-798): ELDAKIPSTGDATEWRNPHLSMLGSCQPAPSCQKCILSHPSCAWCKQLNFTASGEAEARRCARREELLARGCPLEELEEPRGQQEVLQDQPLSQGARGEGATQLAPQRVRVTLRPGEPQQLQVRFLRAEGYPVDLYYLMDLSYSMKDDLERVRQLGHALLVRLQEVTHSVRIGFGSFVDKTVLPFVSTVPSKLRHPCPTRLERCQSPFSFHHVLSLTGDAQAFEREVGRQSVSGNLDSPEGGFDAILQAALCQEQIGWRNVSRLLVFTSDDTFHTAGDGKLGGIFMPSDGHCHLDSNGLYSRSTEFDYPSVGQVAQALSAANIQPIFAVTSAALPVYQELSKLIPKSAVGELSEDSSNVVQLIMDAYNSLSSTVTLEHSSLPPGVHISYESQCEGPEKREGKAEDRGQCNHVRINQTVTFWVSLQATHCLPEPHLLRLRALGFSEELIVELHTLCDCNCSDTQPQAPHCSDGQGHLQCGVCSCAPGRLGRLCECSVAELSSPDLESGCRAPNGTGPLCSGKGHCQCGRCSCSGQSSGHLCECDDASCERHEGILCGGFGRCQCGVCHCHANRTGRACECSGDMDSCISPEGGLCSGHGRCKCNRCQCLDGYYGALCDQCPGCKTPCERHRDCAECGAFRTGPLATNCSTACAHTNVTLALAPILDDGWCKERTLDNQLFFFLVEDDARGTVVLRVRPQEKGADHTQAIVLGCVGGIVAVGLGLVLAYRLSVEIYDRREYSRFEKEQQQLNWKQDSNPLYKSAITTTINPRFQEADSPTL
Chain of α4β1 integrin (P13612 34-1032): as the sequence (P13612 34-1032) above
Chain of α4β1 integrin (P05556 21-798): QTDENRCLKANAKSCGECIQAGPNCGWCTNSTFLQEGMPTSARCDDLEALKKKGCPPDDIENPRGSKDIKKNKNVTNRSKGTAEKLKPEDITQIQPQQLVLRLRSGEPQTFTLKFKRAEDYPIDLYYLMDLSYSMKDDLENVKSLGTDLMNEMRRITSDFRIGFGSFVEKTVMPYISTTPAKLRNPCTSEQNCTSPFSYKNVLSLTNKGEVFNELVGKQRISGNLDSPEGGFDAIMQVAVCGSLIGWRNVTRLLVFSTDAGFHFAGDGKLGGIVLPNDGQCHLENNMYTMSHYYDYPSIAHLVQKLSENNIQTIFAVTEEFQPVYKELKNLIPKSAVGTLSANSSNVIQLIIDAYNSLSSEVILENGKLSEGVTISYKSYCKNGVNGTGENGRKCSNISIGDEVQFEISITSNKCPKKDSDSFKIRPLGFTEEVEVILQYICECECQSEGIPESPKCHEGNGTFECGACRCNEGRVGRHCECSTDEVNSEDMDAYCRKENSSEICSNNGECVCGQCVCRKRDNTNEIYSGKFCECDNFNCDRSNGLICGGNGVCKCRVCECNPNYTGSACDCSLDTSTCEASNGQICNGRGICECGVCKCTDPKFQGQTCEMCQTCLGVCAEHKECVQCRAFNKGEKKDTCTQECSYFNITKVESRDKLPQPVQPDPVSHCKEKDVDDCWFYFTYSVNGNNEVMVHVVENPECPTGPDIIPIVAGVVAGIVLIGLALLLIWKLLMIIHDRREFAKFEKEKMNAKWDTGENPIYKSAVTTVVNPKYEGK

What is called IC50 is the concentration at which inhibition is half-maximal. `Cn1c(=O)c(-c2cccc3c(C[C@H](NC(=O)C4(C)CCN(C5COC5)CC4)C(=O)O)cccc23)c(C(F)(F)F)c2ccccc21` [Compound 363]: the IC50 is 10 to 100 nM in experiment [1] and > 1000 nM in experiment [2] (setting [3]).
For `CN(c1cc(F)c(C(=O)N[C@@H](Cc2cccc3c(-c4c(C(F)(F)F)c5ccccc5n(C)c4=O)cccc23)C(=O)O)c(F)c1)C1COC1` [Compound 364], in that order: 100 to 1000 nM and > 1000 nM.
For `CO[C@H](C)c1cc(F)c(C(=O)N[C@@H](Cc2cccc3c(-c4c(C(F)(F)F)c5ccccc5n(C)c4=O)cccc23)C(=O)O)c(F)c1` [Compound 375], in that order: 100 to 1000 nM and > 1000 nM.
For `Cn1c(=O)c(-c2cccc3c(C[C@H](NC(=O)c4c(F)cc(NC5COC5)cc4F)C(=O)O)cccc23)c(C(F)(F)F)c2ccccc21` [Compound 378], in that order: 10 to 100 nM and > 1000 nM.
For the molecule `Cn1c(=O)c(-c2cccc3c(C[C@H](NC(=O)c4c(F)cc(N(CC(F)(F)F)C5COC5)cc4F)C(=O)O)cccc23)c(C(F)(F)F)c2ccccc21` [Compound 380], the IC50 was 10 to 100 nM in experiment [1] and > 1000 nM in experiment [2] (setting [3]).
For `Cn1c(=O)c(-c2cccc3c(C[C@H](NC(=O)c4c(F)cc(C5CCC(F)(F)CC5)cc4F)C(=O)O)cccc23)c(C(F)(F)F)c2ccccc21` [Compound 381], in that order: 100 to 1000 nM and > 1000 nM.
For `COCCN(C)c1cc(F)c(C(=O)N[C@@H](Cc2cccc3c(-c4c(C(F)(F)F)c5ccccc5n(C)c4=O)cccc23)C(=O)O)c(F)c1` [Compound 384], in that order: 100 to 1000 nM and > 1000 nM.
Take `COCCN(CC(F)(F)F)c1cc(F)c(C(=O)N[C@@H](Cc2cccc3c(-c4c(C(F)(F)F)c5ccccc5n(C)c4=O)cccc23)C(=O)O)c(F)c1` [Compound 385]: the IC50 in experiment [1] was 10 to 100 nM; in experiment [2] (setting [3]), > 1000 nM.
With `Cn1c(=O)c(-c2cccc3c(C[C@H](NC(=O)c4c(F)cc(N(CCC(F)(F)F)C5COC5)cc4F)C(=O)O)cccc23)c(C(F)(F)F)c2ccccc21` [Compound 392], the figures for the IC50 in experiment [1] and in experiment [2] (setting [3]) were 10 to 100 nM and > 1000 nM, respectively.
For the molecule `COCCN(c1cc(F)c(C(=O)N[C@@H](Cc2cccc3c(-c4c(C(F)(F)F)c5ccccc5n(C)c4=O)cccc23)C(=O)O)c(F)c1)C1COC1` [Compound 393], the IC50 is 10 to 100 nM in experiment [1] and > 1000 nM in experiment [2] (setting [3]).
As to `Cn1c(=O)c(-c2cccc3c(C[C@H](NC(=O)c4c(F)cc(N(C5COC5)C5COC5)cc4F)C(=O)O)cccc23)c(C(F)(F)F)c2ccccc21` [Compound 397], the IC50 is 100 to 1000 nM in experiment [1] and > 1000 nM in experiment [2] (setting [3]).
In the case of `Cn1c(=O)c(-c2cccc3c(C[C@H](NC(=O)[C@]4(C)CC[C@@H](N5CCC(F)(F)CC5)CC4)C(=O)O)cccc23)c(C(F)(F)F)c2ccccc21` [Compound 401], the IC50 in experiment [1] is 10 to 100 nM; in experiment [2] (setting [3]), > 1000 nM.
As for `Cn1c(=O)c(-c2cccc3c(C[C@H](NC(=O)[C@]4(C)CC[C@H](N5CCC(F)(F)CC5)CC4)C(=O)O)cccc23)c(C(F)(F)F)c2ccccc21` [Compound 402], the IC50 in experiment [1] and in experiment [2] (setting [3]) was > 1000 nM throughout.
`Cn1c(C(F)(F)F)cc(C(F)(F)F)c(-c2cccc3c(C[C@H](NC(=O)[C@]4(C)CC[C@@H](N5CCOC[C@@H]5C(F)(F)F)CC4)C(=O)O)cccc23)c1=O` [Compound 407]: the IC50 in experiment [1] was 10 to 100 nM; in experiment [2] (setting [3]) it was > 1000 nM.
For `Cn1c(C(F)(F)F)cc(C(F)(F)F)c(-c2cccc3c(C[C@H](NC(=O)[C@]4(C)CC[C@H](N5CCOC[C@@H]5C(F)(F)F)CC4)C(=O)O)cccc23)c1=O` [Compound 408], in that order: 10 to 100 nM and > 1000 nM.
For the molecule `CN(C)c1ccc2c(c1)c(C(F)(F)F)c(-c1cccc3c(C[C@H](NC(=O)[C@]4(C)CC[C@H](N5CCC(F)(F)CC5)CC4)C(=O)O)cccc13)c(=O)n2C` [Compound 412], the IC50 in experiment [1] and in experiment [2] (setting [3]) was > 1000 nM in each case.
Consider `Cn1c(=O)c(-c2cccc3c(C[C@H](NC(=O)C4(C)CCN([C@H]5CCOC5)CC4)C(=O)O)cccc23)c(C(F)(F)F)c2ccccc21` [Compound 413], for which the IC50 in experiment [1] is 10 to 100 nM; in experiment [2] (setting [3]), > 1000 nM.
As for `Cn1c(=O)c(-c2cccc3c(C[C@H](NC(=O)C4(C)CCN([C@@H]5CCOC5)CC4)C(=O)O)cccc23)c(C(F)(F)F)c2ccccc21` [Compound 414], the IC50 in experiment [1] was < 10 nM; in experiment [2] (setting [3]) it was > 1000 nM.
As to `CO[C@@H](C)c1cc(F)c(C(=O)N[C@@H](Cc2cccc3c(-c4c(C(F)(F)F)c5ccccc5n(C)c4=O)cccc23)C(=O)O)c(F)c1` [Compound 415], the IC50 in experiment [1] was 100 to 1000 nM; in experiment [2] (setting [3]), > 1000 nM.
As to `CN(C)Cc1cccc2c(-c3cccc4c(C[C@H](NC(=O)[C@]5(C)CC[C@@H](N6CCOC[C@@H]6C(F)(F)F)CC5)C(=O)O)cccc34)nccc12` [Compound 418], the IC50 in experiment [1] was < 10 nM; in experiment [2] (setting [3]) it was > 1000 nM.
For the molecule `CN(C)Cc1cccc2c(-c3cccc4c(C[C@H](NC(=O)C5(C)CCN(CC(F)(F)F)CC5)C(=O)O)cccc34)nccc12` [Compound 420], the values for the IC50 in experiment [1] and in experiment [2] (setting [3]) were 10 to 100 nM and > 1000 nM, respectively.
`CN(C)Cc1cccc2c(-c3cccc4c(C[C@H](NC(=O)[C@]5(C)CC[C@H](N6CCC(F)(F)CC6)CC5)C(=O)O)cccc34)nccc12` [Compound 424]: the IC50 in experiment [1] was < 10 nM; in experiment [2] (setting [3]), > 1000 nM.
For `Cn1c(C(F)(F)F)cc(C(F)(F)F)c(-c2cccc3c(C[C@H](NC(=O)C4(C(F)(F)F)CCN(CC(F)(F)F)CC4)C(=O)O)cccc23)c1=O` [Compound 431], in that order: < 10 nM and 100 to 1000 nM.
For `Cn1ccc(C(F)(F)F)c(-c2cccc3c(C[C@H](NC(=O)c4c(F)cc(N5CCOc6ccccc65)cc4F)C(=O)O)cccc23)c1=O` [Compound 439], in that order: 10 to 100 nM and > 1000 nM.
On to `Cn1ccc(C(F)(F)F)c(-c2cccc3c(C[C@H](NC(=O)c4c(F)cc(N5CCOC(CN6CCCC6)C5)cc4F)C(=O)O)cccc23)c1=O` (stereo partly drawn) [Compound 440], for which the IC50 in experiment [1] was 10 to 100 nM; in experiment [2] (setting [3]), > 1000 nM.
For `CN(C)Cc1cc(-c2cccc3c(C[C@H](NC(=O)c4c(F)cc(N5CCOC[C@@H]5C(F)(F)F)cc4F)C(=O)O)cccc23)c2cnccc2c1` [Compound 445], in that order: < 10 nM and > 1000 nM.
For `CN(C)Cc1ccc2c(-c3cccc4c(C[C@H](NC(=O)c5c(F)cc(N6CCOC[C@@H]6C(F)(F)F)cc5CN5CCOCC5)C(=O)O)cccc34)nccc2c1` [Compound 557], the IC50 in experiment [1] is < 10 nM; in experiment [2] (setting [3]), > 1000 nM.
Consider `CN(C)Cc1ccc2c(-c3cccc4c(C[C@H](NC(=O)[C@]5(C)CC[C@@H](N6CCOC[C@@H]6C(F)(F)F)CC5)C(=O)O)cccc34)nccc2c1` [Compound 581], for which the values for the IC50 in experiment [1] and in experiment [2] (setting [3]) were 10 to 100 nM and > 1000 nM, respectively.
For `CN(C)Cc1ccc2c(-c3cccc4c(C[C@H](NC(=O)[C@]5(C)CC[C@H](N6CCOC[C@@H]6C(F)(F)F)CC5)C(=O)O)cccc34)nccc2c1` [Compound 582], in that order: 10 to 100 nM and > 1000 nM.
Take `CN(C)Cc1ccc2c(-c3cccc4c(C[C@H](NC(=O)C5(C)CCN(CC(F)(F)F)CC5)C(=O)O)cccc34)nccc2c1` [Compound 583]: the IC50 in experiment [1] is 10 to 100 nM; in experiment [2] (setting [3]), > 1000 nM.
For `CN(C)Cc1ccc2c(-c3cccc4c(C[C@H](NC(=O)[C@]5(C)CC[C@@H](N6CCC(F)(F)CC6)CC5)C(=O)O)cccc34)nccc2c1` [Compound 585], in that order: < 10 nM and > 1000 nM.
`CN(C)Cc1ccc2c(c1)c(C(F)(F)F)c(-c1cccc3c(C[C@H](NC(=O)c4c(F)cc(N5CCOC[C@@H]5C(F)(F)F)cc4F)C(=O)O)cccc13)c(=O)n2C` [Compound 698]: the IC50 in experiment [1] (protocol not given) was < 10 nM; in experiment [2] (setting [4]) it was 100 to 1000 nM.
For `CN(C)CCc1ccc2c(c1)c(C(F)(F)F)c(-c1cccc3c(C[C@H](NC(=O)c4c(F)cccc4F)C(=O)O)cccc13)c(=O)n2C` [Compound 705], in that order: < 10 nM and 100 to 1000 nM.
For `CN(C)CCc1ccc2c(c1)c(C(F)(F)F)c(-c1cccc3c(C[C@H](NC(=O)c4c(F)cc(N5CCOC[C@@H]5C(F)(F)F)cc4F)C(=O)O)cccc13)c(=O)n2C` [Compound 708], in that order: < 10 nM and 100 to 1000 nM.
For `O=C(N[C@@H](Cc1cccc2c(-n3c(C(F)(F)F)cccc3=O)cccc12)C(=O)O)c1c(F)cccc1F` [Compound 1040], in that order: 10 to 100 nM and > 1000 nM.
For the molecule `Cc1cccc(C)c1-c1cc(F)c(C(=O)N[C@@H](Cc2cccc3c(-n4c(=O)cc(CCN5CC(F)C5)n(C)c4=O)cccc23)C(=O)O)c(F)c1` [Compound 1057], the results for the IC50 in experiment [1] (protocol not given) and in experiment [2] (setting [4]) were 10 to 100 nM and > 1000 nM, respectively.

The values above are taken from patent US20250313535A1, “ALPHA 4 BETA 7 INTEGRIN MODULATORS AND USES THEREOF” (DICE MOLECULES SV, INC., priority 2022, published 2025).
